Assay [1] relates to human breast MDA-MB-361 tumor cell line. The experiment in a line: In vitro cell culture growth assay (MTS), MDA-MB-361. The class given is cell-based.
A further assay has as its target PI3K-γ (Homo sapiens, UniProt P48736). The experiment in a line: PI3K-gamma fluorescence polarization assay. To be noted: read-out: IC50 PI3Kγ.
Another assay deals with PI3K-α (Homo sapiens, UniProt P42336). The experiment in a line: PI3K-alpha fluorescence polarization assay. To be noted: read-out: IC50 PI3Kα. (In general: Polarisation of emitted light reports the rotation of a fluorescent probe.)
In another assay the target is Human mTOR (FLAG-TOR) (Homo sapiens, UniProt P42345). Put plainly: mTOR kinase assay (DELFIA format, purified enzyme). Type of assay: biochemical.
Assay [2] deals with human prostate PC3-mm2 tumor cell line. Put plainly: In vitro cell culture growth assay (MTS), PC3-mm2. Type of assay: cell-based.
The mark [3] stands for this setting: Homo sapiens, MDA-MB-361, 72 h, MTS cell growth assay, three days after drug treatment, read-out: IC50 MDA-MB-361.
Where [4] appears, read: Homo sapiens, PC3MM2, 72 h, MTS cell growth assay, three days after drug treatment, read-out: IC50 PC3-mm2.
Setting [5] is: Homo sapiens, MDA-MB-361, 72 h, read-out: IC50 MDA-MB-361.
Where [6] appears, read: Homo sapiens, PC3MM2, 72 h, read-out: IC50 PC3-mm2.
Setting [7] is: Homo sapiens, MDA-MB-361, 72 h, MTS cell growth assay, three days after drug treatment, MDA-MB-361 cells, read-out: IC50 MDA-MB-361.
Where [8] appears, read: Homo sapiens, PC3MM2, 72 h, MTS cell growth assay, three days after drug treatment, PC3-mm2 cells, read-out: IC50 PC3-mm2.

pIC50: −log10 of the molar value. “And” between values parts separate entries of the source, which are not always exact repeats. Equal values may be shown once. Read-outs that look alike come from different tables or passages of the source. Some results are limits rather than exact numbers.

Chain of Human mTOR (FLAG-TOR) (P42345 1360-2549 limits assumed): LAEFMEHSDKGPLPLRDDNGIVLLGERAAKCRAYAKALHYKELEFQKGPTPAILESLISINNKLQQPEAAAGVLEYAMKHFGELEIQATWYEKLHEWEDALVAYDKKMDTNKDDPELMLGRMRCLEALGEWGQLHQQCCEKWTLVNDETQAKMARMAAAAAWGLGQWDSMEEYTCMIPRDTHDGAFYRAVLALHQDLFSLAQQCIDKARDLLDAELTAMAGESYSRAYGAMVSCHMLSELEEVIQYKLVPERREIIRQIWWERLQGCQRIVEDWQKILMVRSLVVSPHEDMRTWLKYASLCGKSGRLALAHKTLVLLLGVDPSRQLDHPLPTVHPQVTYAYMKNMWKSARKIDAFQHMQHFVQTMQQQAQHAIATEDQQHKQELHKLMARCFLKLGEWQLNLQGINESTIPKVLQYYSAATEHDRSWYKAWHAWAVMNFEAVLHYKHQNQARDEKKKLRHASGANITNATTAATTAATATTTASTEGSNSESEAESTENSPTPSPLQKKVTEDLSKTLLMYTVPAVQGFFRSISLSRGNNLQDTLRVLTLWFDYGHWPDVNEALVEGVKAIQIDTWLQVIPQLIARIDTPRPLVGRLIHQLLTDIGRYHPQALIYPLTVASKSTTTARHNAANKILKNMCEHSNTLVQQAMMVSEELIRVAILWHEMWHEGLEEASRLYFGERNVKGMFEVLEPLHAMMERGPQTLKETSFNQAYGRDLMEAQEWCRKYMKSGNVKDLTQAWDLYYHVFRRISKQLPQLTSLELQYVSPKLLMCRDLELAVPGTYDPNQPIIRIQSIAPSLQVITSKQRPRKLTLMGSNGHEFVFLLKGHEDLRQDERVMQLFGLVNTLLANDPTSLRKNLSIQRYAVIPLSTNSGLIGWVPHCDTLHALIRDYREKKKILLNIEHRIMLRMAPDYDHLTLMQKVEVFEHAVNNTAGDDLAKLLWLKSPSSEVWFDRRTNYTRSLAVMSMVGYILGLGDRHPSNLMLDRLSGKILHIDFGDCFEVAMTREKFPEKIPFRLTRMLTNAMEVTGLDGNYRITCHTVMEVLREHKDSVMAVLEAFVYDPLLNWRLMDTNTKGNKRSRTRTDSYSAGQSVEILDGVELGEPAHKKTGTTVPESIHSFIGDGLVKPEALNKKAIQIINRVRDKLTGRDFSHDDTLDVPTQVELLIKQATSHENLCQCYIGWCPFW
Chain of PI3K-γ (P48736 whole entry, species assumed): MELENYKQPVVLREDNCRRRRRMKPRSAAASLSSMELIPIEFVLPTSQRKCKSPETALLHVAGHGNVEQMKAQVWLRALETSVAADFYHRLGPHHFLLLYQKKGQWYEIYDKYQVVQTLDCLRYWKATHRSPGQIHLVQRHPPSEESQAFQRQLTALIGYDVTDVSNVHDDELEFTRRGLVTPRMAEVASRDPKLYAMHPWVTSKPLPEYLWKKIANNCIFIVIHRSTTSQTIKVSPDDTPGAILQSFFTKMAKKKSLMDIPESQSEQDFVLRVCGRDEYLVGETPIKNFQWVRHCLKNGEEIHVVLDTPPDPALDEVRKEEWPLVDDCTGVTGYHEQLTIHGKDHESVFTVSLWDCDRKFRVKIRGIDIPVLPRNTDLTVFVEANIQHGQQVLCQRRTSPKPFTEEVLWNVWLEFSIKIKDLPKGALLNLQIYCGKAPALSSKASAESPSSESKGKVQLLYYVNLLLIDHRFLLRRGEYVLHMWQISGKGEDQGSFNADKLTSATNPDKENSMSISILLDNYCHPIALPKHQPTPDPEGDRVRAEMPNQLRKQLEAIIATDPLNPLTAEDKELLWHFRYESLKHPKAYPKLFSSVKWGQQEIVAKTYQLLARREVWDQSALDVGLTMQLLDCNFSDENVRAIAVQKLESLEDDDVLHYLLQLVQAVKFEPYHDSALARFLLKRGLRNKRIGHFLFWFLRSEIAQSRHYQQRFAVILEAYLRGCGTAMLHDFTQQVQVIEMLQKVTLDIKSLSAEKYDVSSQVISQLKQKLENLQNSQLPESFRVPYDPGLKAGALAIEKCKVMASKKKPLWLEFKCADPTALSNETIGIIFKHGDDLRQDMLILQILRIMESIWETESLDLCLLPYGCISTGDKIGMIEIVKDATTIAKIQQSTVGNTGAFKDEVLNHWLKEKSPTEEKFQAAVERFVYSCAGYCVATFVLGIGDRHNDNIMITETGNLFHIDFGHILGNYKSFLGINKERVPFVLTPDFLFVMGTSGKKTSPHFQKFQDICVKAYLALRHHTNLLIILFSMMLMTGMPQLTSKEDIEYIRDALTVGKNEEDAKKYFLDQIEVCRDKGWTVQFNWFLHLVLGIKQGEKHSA
Chain of PI3K-α (P42336 whole entry, species assumed): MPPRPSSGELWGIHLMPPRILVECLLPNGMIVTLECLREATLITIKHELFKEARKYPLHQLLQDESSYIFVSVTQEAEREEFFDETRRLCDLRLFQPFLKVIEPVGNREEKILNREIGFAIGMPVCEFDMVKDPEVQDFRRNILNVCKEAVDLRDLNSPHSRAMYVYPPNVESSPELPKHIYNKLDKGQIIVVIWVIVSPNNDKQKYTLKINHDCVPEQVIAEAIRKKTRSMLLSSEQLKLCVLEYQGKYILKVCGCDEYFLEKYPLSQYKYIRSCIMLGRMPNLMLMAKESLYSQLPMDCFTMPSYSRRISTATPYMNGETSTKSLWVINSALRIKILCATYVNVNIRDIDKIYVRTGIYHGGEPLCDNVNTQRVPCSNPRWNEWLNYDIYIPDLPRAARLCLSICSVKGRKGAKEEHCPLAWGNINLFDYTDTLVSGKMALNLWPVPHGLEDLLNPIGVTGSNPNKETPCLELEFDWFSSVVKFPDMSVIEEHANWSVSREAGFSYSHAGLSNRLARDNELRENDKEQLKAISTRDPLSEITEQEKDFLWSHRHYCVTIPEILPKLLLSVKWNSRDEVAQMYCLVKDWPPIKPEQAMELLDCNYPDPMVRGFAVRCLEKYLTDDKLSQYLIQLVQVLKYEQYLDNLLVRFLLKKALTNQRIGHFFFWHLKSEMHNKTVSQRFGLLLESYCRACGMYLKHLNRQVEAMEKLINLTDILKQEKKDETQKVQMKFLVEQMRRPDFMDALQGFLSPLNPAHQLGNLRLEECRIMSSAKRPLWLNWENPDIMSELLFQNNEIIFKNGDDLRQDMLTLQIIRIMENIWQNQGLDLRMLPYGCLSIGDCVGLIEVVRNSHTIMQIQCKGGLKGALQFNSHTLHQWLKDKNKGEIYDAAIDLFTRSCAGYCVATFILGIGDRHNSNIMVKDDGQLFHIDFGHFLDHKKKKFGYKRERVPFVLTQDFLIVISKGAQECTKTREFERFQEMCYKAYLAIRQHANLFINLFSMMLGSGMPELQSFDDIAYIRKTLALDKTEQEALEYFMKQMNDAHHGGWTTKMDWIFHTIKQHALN
Chain of PI3K-α (P27986 whole entry partner, species assumed): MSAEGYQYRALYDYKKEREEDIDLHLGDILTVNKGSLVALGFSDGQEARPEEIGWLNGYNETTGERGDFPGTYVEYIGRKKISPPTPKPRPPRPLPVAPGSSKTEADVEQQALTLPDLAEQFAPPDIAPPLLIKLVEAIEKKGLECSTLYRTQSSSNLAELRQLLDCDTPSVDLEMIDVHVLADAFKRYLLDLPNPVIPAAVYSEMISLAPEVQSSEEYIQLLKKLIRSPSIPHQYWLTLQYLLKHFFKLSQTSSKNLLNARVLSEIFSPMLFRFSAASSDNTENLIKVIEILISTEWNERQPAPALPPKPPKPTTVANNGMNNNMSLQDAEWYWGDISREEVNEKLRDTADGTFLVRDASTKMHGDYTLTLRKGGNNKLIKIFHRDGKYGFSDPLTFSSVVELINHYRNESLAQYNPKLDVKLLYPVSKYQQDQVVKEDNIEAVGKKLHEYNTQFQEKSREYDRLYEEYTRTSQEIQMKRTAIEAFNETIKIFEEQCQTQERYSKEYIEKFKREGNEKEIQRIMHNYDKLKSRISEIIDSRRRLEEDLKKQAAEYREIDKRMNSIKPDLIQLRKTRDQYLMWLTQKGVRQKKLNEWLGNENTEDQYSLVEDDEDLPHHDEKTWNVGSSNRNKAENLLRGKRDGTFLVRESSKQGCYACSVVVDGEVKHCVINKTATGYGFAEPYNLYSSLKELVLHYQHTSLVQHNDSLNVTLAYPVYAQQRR

The term pIC50 denotes the IC50 on a negative log10 scale, so that one unit is a factor of ten. For the compound “1-{4-[4-(4-methylphenyl)-6-morpholin-4-yl-1,3,5-triazin-2-yl]phenyl}-3-[4-(pyrrolidin-1-ylcarbonyl)phenyl]urea [Example 553]”, the negative logarithm of the IC50 (pIC50) in assay [1] (MTS cell growth assay, three days after drug treatment, MDA-MB-361 cells, read-out: IC50 MDA-MB-361) was 6.95; on PI3K-γ, 7.14; on PI3K-α it was 7.90; on Human mTOR (FLAG-TOR) (read-out: IC50 mTOR) it was 7.71; in assay [2] (MTS cell growth assay, three days after drug treatment, PC3-mm2 cells, read-out: IC50 PC3-mm2), 6.28.

For `O=C(Nc1ccncc1)Nc1ccc(-c2nc(N3CCOCC3)nc(N3CCOCC3)n2)cc1` [Example 1, 1-[4-(4,6-dimorpholin-4-yl-1,3,5-triazin-2-yl)phenyl]-3-pyridin-4-ylurea], the pIC50 in assay [1] (Homo sapiens, MDA-MB-361, 72 h, read-out: IC50 MDA-MB-361, MTS cell growth assay, three days after drug treatment) was 7.35; on PI3K-γ it was 7.54; at PI3K-α it was 8.52; at Human mTOR (FLAG-TOR) (read-out: IC50 mTOR), 8.89; in assay [2] (Homo sapiens, PC3MM2, 72 h, read-out: IC50 PC3-mm2, MTS cell growth assay, three days after drug treatment), 7.37.

`O=C(Nc1ccccc1)Nc1ccc(-c2nc(N3CCOCC3)nc(N3CCOCC3)n2)cc1` [Example 3, 1-[4-(4,6-dimorpholin-4-yl-1,3,5-triazin-2-yl)phenyl]-3-phenylurea]: the negative logarithm of the IC50 (pIC50) in assay [1] (setting [3]) is 7.35; at PI3K-γ, 7.57; on PI3K-α it was 8.52; at Human mTOR (FLAG-TOR) (read-out: IC50 mTOR), 8.41; in assay [2] (setting [4]), 7.37.

For the compound `Cc1ccc(NC(=O)Nc2ccc(-c3nc(N4CCOCC4)nc(N4CCOCC4)n3)cc2)cc1` [Example 5, 1-[4-(4,6-dimorpholin-4-yl-1,3,5-triazin-2-yl)phenyl]-3-(4-methylphenyl)urea], the pIC50 in assay [1] (setting [3]) is 7.35; on PI3K-γ it was 6.36; at PI3K-α, 7.77; on Human mTOR (FLAG-TOR) (read-out: IC50 mTOR), 8.20; in assay [2] (setting [4]), 7.37.

Regarding `O=C(Nc1ccc(F)cc1)Nc1ccc(-c2nc(N3CCOCC3)nc(N3CCOCC3)n2)cc1` [Example 6, 1-[4-(4,6-dimorpholin-4-yl-1,3,5-triazin-2-yl)phenyl]-3-(4-fluorophenyl)urea], the pIC50 was 7.35 in assay [1] (setting [3]); 7.28 on PI3K-γ; 8.22 on PI3K-α; 8.22 on Human mTOR (FLAG-TOR) (read-out: IC50 mTOR); 7.37 in assay [2] (setting [4]).

For the compound `COc1ccc(NC(=O)Nc2ccc(-c3nc(N4CCOCC4)nc(N4CCOCC4)n3)cc2)cc1` [Example 9, 1-[4-(4,6-dimorpholin-4-yl-1,3,5-triazin-2-yl)phenyl]-3-(4-methoxyphenyl)urea], the pIC50 was 6.99 in assay [1] (setting [3]); 7.19 at PI3K-γ; 8.00 at PI3K-α; 8.40 at Human mTOR (FLAG-TOR) (read-out: IC50 mTOR); 6.79 in assay [2] (setting [4]).

For the compound `CC(C)(C)OC(=O)N1CC(Nc2nc(-c3ccc(NC(=O)Nc4ccc(F)cc4)cc3)nc(N3CCOCC3)n2)C1` [Example 13, tert-butyl 3-{[4-(4-{[(4-fluorophenyl)carbamoyl]-amino}phenyl)-6-morpholin-4-yl-1,3,5-triazin-2-yl]amino}azetidine-1-carboxylate], the pIC50 in assay [1] (setting [3]) is 6.22; on PI3K-γ it was 6.06; at PI3K-α, 7.29; on Human mTOR (FLAG-TOR) (read-out: IC50 mTOR) it was 7.94; in assay [2] (setting [4]) it was 6.07.

`CC(C)(C)OC(=O)N1CC(Nc2nc(-c3ccc(NC(=O)Nc4ccccc4)cc3)nc(N3CCOCC3)n2)C1` [Example 14, tert-butyl 3-[(4-morpholin-4-yl-6-{4-[(phenylcarbamoyl)amino]phenyl}-1,3,5-triazin-2-yl)amino]azetidine-1-carboxylate]: the pIC50 was 6.42 in assay [1] (setting [3]); 6.81 on PI3K-γ; 7.60 at PI3K-α; 8.07 on Human mTOR (FLAG-TOR) (read-out: IC50 mTOR); 6.23 in assay [2] (setting [4]).

`CC(C)(C)OC(=O)N1CC(Nc2nc(-c3ccc(NC(=O)Nc4cccnc4)cc3)nc(N3CCOCC3)n2)C1` [Example 15, tert-butyl 3-[(4-morpholin-4-yl-6-{4-[(pyridine-3-ylcarbamoyl)amino]phenyl}-1,3,5-triazin-2-yl)amino]azetidine-1-carboxylate]: the negative logarithm of the IC50 (pIC50) in assay [1] (setting [3]) was 6.59; at PI3K-γ it was 6.75; at PI3K-α, 7.64; on Human mTOR (FLAG-TOR) (read-out: IC50 mTOR) it was 8.60; in assay [2] (setting [4]), 6.48.

For the compound `O=C(Nc1ccccc1)Nc1ccc(-c2nc(NC3CNC3)nc(N3CCOCC3)n2)cc1` [Example 17, 1-{4-[4-(azetidin-3-ylamino)-6-morpholin-4-yl-1,3,5-triazin-2-yl]phenyl}-3-phenylurea], the negative logarithm of the IC50 (pIC50) in assay [1] (setting [3]) is 6.30; at PI3K-γ, 7.05; at PI3K-α, 8.10; on Human mTOR (FLAG-TOR) (read-out: IC50 mTOR), 7.86; in assay [2] (setting [4]), 6.00.

Consider `CC(C)Oc1nc(-c2ccc(NC(=O)Nc3ccc(C(=O)NCCN(C)C)cc3)cc2)nc(N2CCOCC2)n1` [Example 187, N-[2-(dimethylamino)ethyl]-4-({[4-(4-isopropoxy-6-morpholin-4-yl-1,3,5-triazin-2-yl)phenyl]carbamoyl}amino)benzamide], for which the pIC50 is 7.96 in assay [1] (setting [5]), 8.52 on PI3K-α, 8.46 against Human mTOR (FLAG-TOR) (IC50 mTOR) and 7.39 in assay [2] (setting [6]).

For the compound `COc1nc(-c2ccc(NC(=O)Nc3ccc(C(=O)N(C)CCN(C)C)cc3)cc2)nc(N2CCOCC2)n1` [Example 243, N-[2-(dimethylamino)ethyl]-4-({[4-(4-methoxy-6-morpholin-4-yl-1,3,5-triazin-2-yl)phenyl]carbamoyl}amino)-N-methylbenzamide], the negative logarithm of the IC50 (pIC50) was 7.82 in assay [1] (setting [5]); 9.00 on PI3K-α; 9.40 on PI3K-α (listed as 720); 8.11 at Human mTOR (FLAG-TOR) (IC50 mTOR); 7.47 in assay [2] (setting [6]).

`COc1nc(-c2ccc(NC(=O)Nc3ccc(C(=O)NCCN(C)C)cc3)cc2)nc(N2CCOCC2)n1` [Example 244, N-[2-(dimethylamino)ethyl]-4-({[4-(4-methoxy-6-morpholin-4-yl-1,3,5-triazin-2-yl)phenyl]carbamoyl}amino)benzamide]: the negative logarithm of the IC50 (pIC50) in assay [1] (setting [5]) is more than 7.51; on PI3K-α, 9.00; at PI3K-α (listed as 721), 9.22; on Human mTOR (FLAG-TOR) (IC50 mTOR), 8.29 and 8.25; in assay [2] (setting [6]), 7.15.

`CC(C)N1CCN(C(=O)c2ccc(NC(=O)Nc3ccc(-c4nc(N5CCC5)nc(N5CCOCC5)n4)cc3)cc2)CC1` [Example 492, 1-[4-(4-azetidin-1-yl-6-morpholin-4-yl-1,3,5-triazin-2-yl)phenyl]-3-(4-{[4-(1-methylethyl)piperazin-1-yl]carbonyl}phenyl)urea]: the pIC50 in assay [1] (setting [7]) was 7.59; at PI3K-γ, 7.46; at Human mTOR (FLAG-TOR) (read-out: IC50 mTOR), 7.74; in assay [2] (setting [8]), 7.24.

Take `O=C(Nc1ccc(C(=O)NCCN2CCCCC2)cc1)Nc1ccc(-c2nc(O[C@H]3CCOC3)nc(N3CCOCC3)n2)cc1` [Example 520, 4-{[(4-{4-morpholin-4-yl-6-[(3S)-tetrahydrofuran-3-yloxy]-1,3,5-triazin-2-yl}phenyl)carbamoyl]amino}-N-(2-piperidin-1-ylethyl)benzamide]: the negative logarithm of the IC50 (pIC50) was 8.30 in assay [1] (setting [5]), 8.85 at PI3K-α, 9.42 at Human mTOR (FLAG-TOR) (IC50 mTOR) and 7.74 in assay [2] (setting [8]).

Consider `CN1CCN(C(=O)c2ccc(NC(=O)Nc3ccc(-c4nc(N5CCCOCC5)nc(N5CCOCC5)n4)cc3)cc2)CC1` [Example 573, 1-{4-[(4-methylpiperazin-1-yl)carbonyl]phenyl}-3-{4-[4-morpholin-4-yl-6-(1,4-oxazepan-4-yl)-1,3,5-triazin-2-yl]phenyl}urea], for which the negative logarithm of the IC50 (pIC50) in assay [1] (setting [7]) was 7.00; on PI3K-γ it was 7.19; on Human mTOR (FLAG-TOR) (read-out: IC50 mTOR), 8.40; in assay [2] (setting [8]) it was 6.69.

In the case of `O=C(Nc1ccc(C(=O)NCCN2CCOCC2)cc1)Nc1ccc(-c2nc(N3CCOCC3)nc(N3C4CCC3COC4)n2)cc1` [Example 702, N-(2-morpholin-4-ylethyl)-4-[({4-[4-morpholin-4-yl-6-(3-oxa-8-azabicyclo[3.2.1]oct-8-yl)-1,3,5-triazin-2-yl]phenyl}carbamoyl)amino]benzamide], the negative-log IC50 (pIC50) in assay [1] (Homo sapiens, 72 h, MTS cell growth assay, three days after drug treatment, MDA-MB-361 cells, read-out: IC50 MDA-MB-361) is 8.40; at PI3K-γ it was 6.90; on Human mTOR (FLAG-TOR) (read-out: IC50 mTOR), 9.26; in assay [2] (setting [8]), 7.85.

On to `CC(C)N1CCN(C(=O)c2ccc(NC(=O)Nc3ccc(-c4nc(N5CCOCC5)nc(N5C6CCCC5COC6)n4)cc3)cc2)CC1` [Example 805, 1-(4-{[4-(1-methylethyl)piperazin-1-yl]carbonyl}phenyl)-3-{4-[4-morpholin-4-yl-6-(3-oxa-9-azabicyclo[3.3.1]non-9-yl)-1,3,5-triazin-2-yl]phenyl}urea], for which the negative logarithm of the IC50 (pIC50) was 8.52 in assay [1] (Homo sapiens, MDA-MB-361, 72 h, MDA-MB-361 cells, MTS, three days after drug treatment, read-out: IC50 MDA-MB-361); 7.19 on PI3K-γ; 9.38 on Human mTOR (FLAG-TOR) (read-out: IC50 mTOR); 7.89 in assay [2] (Homo sapiens, PC3MM2, 72 h, PC3-mm2 cells, MTS, three days after drug treatment, read-out: IC50 PC3-mm2).
